Key:
[1] = Compound stability in rat liver microsomes; type: in vitro ADME; settings: for CLint scaled at 5 μM: liver microsomes, pH 7.4, in vivo CLint extrapolated from rat liver microsome incubation; for half-life at 5 μM: rat liver microsomes 0.5 mg protein/mL, compound 5 μM, NADPH 1.0 mM, pH 7.4, 37° C., read-out: Rat T1/2
Protocol: (§1) The LC/MS/MS system used in the analysis consists of an Agilent 1200 Series vacuum degasser, binary pump, well-plate autosampler, thermostatted column compartment, the Agilent G6430 Triple Quadrupole Mass Spectrometer with an electrosprayionization (ESI) source. Quantitative analysis was carried out using MRM mode. The parameters for MRM transitions are in the Table A.
(§2) An Agilent XDB-C18, 2.1×30 mm, 3.5 μM column was used for the analysis. 5 μL of the samples were injected. Analysis condition: The mobile phase was 0.1% formic acid in water (A) and 0.1% formic acid in methanol (B). The flow rate was 0.4 mL/min. And the gradient of Mobile phase was in the Table B.
(§3) Alternatively, an Agilent 6330 series LC/MS/MS spectrometer equipped with G1312A binary pumps, a G1367A autosampler and a G1314C UV detector were used in the analysis. An ESI source was used on the LC/MS/MS spectrometer. The analysis was done in positive ion mode as appropriate and the MRM transition for each analyte was optimized using standard solution. A Capcell MP-C18 100×4.6 mm I.D., 5 uM column (Phenomenex, Torrance, Calif., USA) was used during the analysis. The mobile phase was 5 mM ammonia acetate, 0.1% MeOH in water (A): 5 mM ammonia acetate, 0.1% MeOH in acetonitrile (B) (70/30, v/v). The flow rate was 0.6 mL/min. Column was maintained at ambient temperature. 20 μL of the samples were injected.
(§4) Human or rat liver microsomes incubations were conducted in duplicate in polypropylene tubes. The typical incubation mixtures consisted of human or rat liver microsomes (0.5 mg protein/mL), compounds of interest (5 μM) and NADPH (1.0 mM) in a total volume of 200 μL potassium phosphate buffer (PBS, 100 mM, pH 7.4). Compounds were dissolved in DMSO and diluted with PBS such that the final concentration of DMSO was 0.05%. The enzymatic reactions were commenced with the addition of […] after a 3-min preincubation and incubated in a water bath open to the air at 37° C. Reactions were terminated at various time points (0, 5, 10, 15, 30, 60 min) by adding equal volume of ice-cold acetonitrile. The samples were stored at […] until LC/MS/MS assays.
(§5) The concentrations of compounds in the incubation mixtures of human or rat liver microsomes were determined by a LC/MS/MS method. The ranges of the linearity in the concentration range were determined for each tested compounds.
(§6) A parallel incubation was performed using denatured microsomes as the negative control, and reactions were terminated at various time points (0, 15, 60 min) after incubation at 37° C.
(§7) Dextromethorphan (70 μM) was selected as the positive control, and reactions were terminated at various time points (0, 5, 10, 15, 30, 60 min) after incubation at 37° C. Both positive and negative control samples were included in each assay to ensure the integrity of the microsomal incubation system.
(§8) The concentrations of compounds in human or rat liver microsome incubations were plotted as a percentage of the relevant zero time point control for each reaction. The in vivo CLint were extrapolated (ref.: Naritomi, Y.; Terashita, S.; Kimura, S.; Suzuki, A.; Kagayama, A.; and Sugiyama, Y.; Prediction of human hepatic clearance from in vivo animal experiments and in vitro metabolic studies with liver microsomes from animals and humans. Drug Metab. Dispos., 2001, 29: 1316-1324).

[2] = Pharmacokinetics after intravenous and oral administration in rats; type: in vivo; settings: for Clearance (CL) after iv dosing / AUC(0-t) / half-life / Vd: dose 1 mg/kg (Ex. 9: 0.6, Ex. 18: 0.5, Ex. 50: 0.96 mg/kg), iv dosing; for AUC(0-t) / half-life / Vd / bioavailability: rat, plasma; for Vd: read-out: Vss; for bioavailability: oral (generally 5 or 10 mg/kg) versus iv dosing, read-out: F (oral bioavailability)
Protocol: as §1, §2, §3
The compounds disclosed herein are assessed in pharmacokinetic studies in mice, rats, dogs or monkeys. The compounds are administered as a water solution, 2% HPMC+1% TWEEN®80 in water solution, 5% DMSO+5% solutol in saline, 4% MC suspension or capsule. For the intravenous administration, the animals are generally given at about 0.5, 0.6, 1 or 2 mg/kg dose. For the oral (p.o.) dosing, mice and rats are generally given 5 or 10 mg/kg dose, and dogs and monkeys are generally given 10 mg/kg dose. The blood samples (0.3 mL) are drawn at 0.25, 0.5, 1.0, 2.0, 3.0, 4.0, 6.0, 8.0, 12 and 24 h time points or 0.083, 0.25, 0.5, 1.0, 2.0, 4.0, 6.0, 8.0 and 24 h time points and centrifuged at 3,000 or 4000 rpm for 2 to 10 min. The plasma solutions are collected, and stored at […] until analyzed by LC/MS/MS as described above.

[3] = Compound stability in human liver microsomes; type: in vitro ADME; settings: for half-life at 5 μM: human liver microsomes 0.5 mg protein/mL, compound 5 μM, NADPH 1.0 mM, pH 7.4, 37° C., read-out: Human T1/2; for CLint scaled at 5 μM: liver microsomes, pH 7.4, in vivo CLint extrapolated from human liver microsome incubation
Protocol: as §1, §2, §3, §4, §5, §6, §7, §8

SMILES	CLint scaled at 5 μM [1]	half-life at 5 μM [1]	Clearance (CL) after iv dosing [2]	AUC(0-t) [2]	half-life [2]	Vd [2]	bioavailability [2]	half-life at 5 μM [3]	CLint scaled at 5 μM [3]
N#Cc1ccc(N2CCC(Nc3nc(Nc4ccn5ccnc5c4)ncc3Cl)CC2)nn1 [Example 4, 6-(4-((5-chloro-2-(imidazo[1,2-a]pyridin-7-ylamino)pyrimidin-4-yl)amino)piperidin-1-yl)pyridazine-3-carbonitrile]	75.4 mL/min/kg	32.9 min	19 mL/min/kg	909 ng·h/mL	43.8 min	1.05 L/kg	35.1%	22.3 min	78.1 mL/min/kg
CCC1CN(c2ccc(C#N)cn2)CCC1Nc1nc(Nc2ccn3cnnc3c2)ncc1Cl (stereo not shown) [Example 5, 6-(4-((2-([1,2,4]triazolo[4,3-a]pyridin-7-ylamino)-5-chloropyrimidin-4-yl)amino)-3-ethylpiperidin-1-yl)nicotinonitrile]	–	–	7.17 mL/min/kg	2340 ng·h/mL	265 min	0.56 L/kg	42.7%	–	–
CCC1CN(c2ccc(C#N)cn2)CCC1Nc1nc(Nc2ccn3ccnc3c2)ncc1Cl (stereo not shown) [Example 6, 6-(4-((5-chloro-2-(imidazo[1,2-a]pyridin-7-ylamino)pyrimidin-4-yl)amino)-3-ethylpiperidin-1-yl)nicotinonitrile]	–	–	6.33 mL/min/kg	2690 ng·h/mL	283 min	0.76 L/kg	71%	–	–
CCC1CN(c2ccc(C#N)nn2)CCC1Nc1nc(Nc2ccn3cnnc3c2)ncc1Cl (stereo not shown) [Example 7, 6-(4-((2-([1,2,4]triazolo[4,3-a]pyridin-7-ylamino)-5-chloropyrimidin-4-yl)amino)-3-ethylpiperidin-1-yl)pyridazine-3-carbonitrile]	112 mL/min/kg	22.2 min	–	–	–	–	–	148 min	11.7 mL/min/kg
CN(c1nc(Nc2ccc3ncnn3c2)ncc1Cl)C1CCN(c2ccc(C#N)cn2)CC1 [Example 9, 6-(4-((2-([1,2,4]triazolo[1,5-a]pyridin-6-ylamino)-5-chloropyrimidin-4-yl) (methyl)amino)piperidin-1-yl)nicotinonitrile]	303 mL/min/kg	8.21 min	20.8 mL/min/kg	547 ng·h/mL	48.6 min	1.13 L/kg	69.1%	71.9 min	24.2 mL/min/kg
CCC1CN(c2ccc(C#N)nn2)CCC1N(C)c1nc(Nc2ccn3c(C)cnc3c2)ncc1Cl (stereo not shown) [Example 11, 6-(4-((5-chloro-2-((3-methylimidazo[1,2-a]pyridin-7-yl)amino)pyrimidin-4-yl)(methyl)amino)-3-ethylpiperidin-1-yl)pyridazine-3-carbonitrile]	0.34 mL/min/kg	5050 min	–	–	–	–	–	330 min	5.26 mL/min/kg
CCC1CN(c2ccc(C#N)nn2)CCC1Nc1nc(Nc2ccn3c(C4CC4)cnc3c2)ncc1Cl (stereo not shown) [Example 15, 6-(4-((5-chloro-2-((3-cyclopropylimidazo[1,2-a]pyridin-7-yl)amino)pyrimidin-4-yl)amino)-3-ethylpiperidin-1-yl)pyridazine-3-carbonitrile]	834 mL/min/kg	2.98 min	–	–	–	–	–	22 min	78.9 mL/min/kg
CCC1CN(c2ccc(C#N)cn2)CCC1Nc1nc(Nc2ccn3c(C)nnc3c2)ncc1Cl (stereo not shown) [Example 17, 6-(4-((5-chloro-2-((3-methyl-[1,2,4]triazolo[4,3-a]pyridin-7-yl)amino)pyrimidin-4-yl)amino)-3-ethylpiperidin-1-yl)nicotinonitrile]	302 mL/min/kg	8.22 min	17.8 mL/min/kg	949 ng·h/mL	36 min	0.67 L/kg	48.2%	44 min	39.5 mL/min/kg
N#Cc1ccc(N2CCC(Nc3nc(Nc4cnn5ccnc5c4)ncc3Cl)CC2)nc1 [Example 18, 6-(4-((5-chloro-2-(imidazo[1,2-b]pyridazin-7-ylamino)pyrimidin-4-yl)amino)piperidin-1-yl)nicotinonitrile]	–	–	13.2 mL/min/kg	638 ng·h/mL	35.4 min	0.5 L/kg	79.4%	–	–
Cc1cn2c(C)cnc2cc1Nc1ncc(Cl)c(NC2CCN(c3ccc(C#N)nn3)CC2)n1 [Example 22, 6-(4-((5-chloro-2-((3,6-dimethylimidazo[1,2-a]pyridin-7-yl)amino)pyrimidin-4-yl)amino)piperidin-1-yl)pyridazine-3-carbonitrile]	11.7 mL/min/kg	213 min	–	–	–	–	–	388 min	4.5 mL/min/kg
Cc1cnc2cc(Nc3ncc(Cl)c(NC4CCN(c5ccc(C#N)cn5)CC4)n3)ccn12 [Example 23, 6-(4-((5-chloro-2-((3-methylimidazo[1,2-a]pyridin-7-yl)amino)pyrimidin-4-yl)amino)piperidin-1-yl)nicotinonitrile]	–	–	19.7 mL/min/kg	844 ng·h/mL	63 min	1.68 L/kg	63%	–	–
Cc1cn2ncc(Nc3ncc(Cl)c(NC4CCN(c5ccc(C#N)cn5)CC4)n3)cc2n1 [Example 37, 6-(4-((5-chloro-2-((2-methylimidazo[1,2-b]pyridazin-7-yl)amino)pyrimidin-4-yl)amino)piperidin-1-yl)nicotinonitrile]	–	–	11.5 mL/min/kg	1460 ng·h/mL	55.8 min	0.83 L/kg	47.8%	–	–
CCC1CN(c2ccc(C#N)cn2)CCC1Nc1nc(Nc2ccn3c(C(C)(C)O)nnc3c2)ncc1Cl (stereo not shown) [Example 41]	57.9 mL/min/kg	42.9 min	–	–	–	–	–	198 min	8.8 mL/min/kg
CC(O)Cn1cnc2ncc(Nc3ncc(Cl)c(NC4CCN(c5ccc(C#N)cn5)CC4)n3)cc21 (stereo not shown) [Example 51, 6-(4-((5-chloro-2-((1-(2-hydroxypropyl)-1H-imidazo[4,5-b]pyridin-6-yl)amino)pyrimidin-4-yl)amino)piperidin-1-yl)nicotinonitrile]	73.1 mL/min/kg	34 min	–	–	–	–	–	31.6 min	54.9 mL/min/kg

Reference: patent US10683297B2 (Sunshine Lake Pharma Co., Ltd., priority 2017, dated 2020)
